For assay [1], the system named is SB.msgc-1. In words: AC50 for growth inhibition (viability) (log10 M); higher = less potent. To be noted: SB.msgc-1 (sporadic gastric cancer). An outline of the steps: (§1)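 Dosing used a pintool to add 23 nL compound in DMSO to 1536 wells, each with 500 hereditary or sporadic patient-derived gastric cancer cells, across 11 threefold dilutions starting at a final 46 μM. Viability after 48 h was measured by CellTiter-Glo luminescence on a ViewLux. The log half-maximal activity concentration derives from a four-parameter fit of that viability normalised to DMSO, limited to high-quality curve classes.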

In assay [2] the test system is SB.mhdgc-1. Described as above. To be noted: SB.mhdgc-1 (hereditary c.1380delA CDH1 gastric cancer). An outline of the steps: as §1

Where a name gives a salt, the structure may show the parent alone.

On to `CC[C@@]1(O)C[C@H](O[C@H]2C[C@H](N(C)C)[C@H](O[C@H]3C[C@H](O)[C@H](O[C@H]4CCC(=O)[C@H](C)O4)[C@H](C)O3)[C@H](C)O2)c2c(cc3c(c2O)C(=O)c2c(O)cccc2C3=O)[C@H]1C(=O)OC` [Aclarubicin], for which the “AC50 for growth inhibition (log10 M)” value in assay [1] is -6.28; in assay [2], -6.78.

As for `COc1ccc(-c2ccc3cc(C(=O)O)ccc3c2)cc1C12CC3CC(CC(C3)C1)C2` [Adapalene], the “AC50 for growth inhibition (log10 M)” value in assay [1] was -5.23; in assay [2], -5.28.

Consider `CC(C)(C)C(=O)OCOP(=O)(COCCn1cnc2c(N)ncnc21)OCOC(=O)C(C)(C)C` [Adefovir dipivoxil], for which the “AC50 for growth inhibition (log10 M)” value is -5.28 in assay [1] and -6.93 in assay [2].

As for `Nc1ncnc2c1ncn2[C@@H]1O[C@H](CO)[C@@H](O)[C@H]1O` [Adenosine], the “AC50 for growth inhibition (log10 M)” value was -5.58 in assay [1] and -6.08 in assay [2].

In the case of `CN(C)CC(C)(C)CNc1nn2c(-c3ccccc3)nnc2cc1C1CCC1` [Akt-I-1], the “AC50 for growth inhibition (log10 M)” value in assay [1] was -4.68; in assay [2] it was -6.33.

Take `CCCCC[C@H](O)/C=C/[C@H]1[C@H](O)CC(=O)[C@@H]1CCCCCCC(=O)O` [Alprostadil]: the “AC50 for growth inhibition (log10 M)” value in assay [1] was -4.68; in assay [2], -5.13.

Turning to `CO[C@H]1/C=C\C=C(\C)C(=O)NC2=CC(=O)C(NCCN(C)C)=C(C[C@@H](C)C[C@H](OC)[C@H](O)[C@@H](C)/C=C(/C)[C@@H]1OC(N)=O)C2=O` [Alvespimycin hydrochloride], the “AC50 for growth inhibition (log10 M)” value in assay [1] is -6.83; in assay [2], -7.38.

`CCCCc1oc2ccccc2c1C(=O)c1cc(I)c(OCCN(CC)CC)c(I)c1` [Amiodarone]: the “AC50 for growth inhibition (log10 M)” value in assay [1] is -5.03; in assay [2] it was -4.88.

Take `CN(C)CCN1C(=O)c2cccc3cc(N)cc(c23)C1=O` [Amonafide]: the “AC50 for growth inhibition (log10 M)” value in assay [1] is -5.08; in assay [2], -5.68.

Take `ClC1=CC\2=C(OC3=C(C=CC=C3)\N=C2N4CCNCC4)C=C1` [Amoxapine]: the “AC50 for growth inhibition (log10 M)” value in assay [1] was -4.78; in assay [2], -4.63.

In the case of `CC1(C)S[C@H]2[C@H](NC(=O)[C@@H](N)C3=CC=C(O)C=C3)C(=O)[N@]2[C@H]1C(O)=O` [Amoxicillin sodium], the entries for the “AC50 for growth inhibition (log10 M)” value in assay [1] and in assay [2] were -5.08 and -5.53, respectively.

Regarding `C[C@@H]1[C@H](O)[C@@H](C)/C=C/C=C/C=C/C=C/C=C/C=C/C=C/[C@H](O[C@@H]2O[C@H](C)[C@@H](O)[C@H](N)[C@@H]2O)C[C@@H]2O[C@](O)(C[C@@H](O)C[C@@H](O)[C@H](O)CC[C@@H](O)C[C@@H](O)CC(=O)O[C@H]1C)C[C@H](O)[C@H]2C(=O)O` [Amphotericin B], the figures for the “AC50 for growth inhibition (log10 M)” value in assay [1] and in assay [2] were -4.88 and -6.38, respectively.

On to `CC(C)CN(C[C@@H](O)[C@H](Cc1ccccc1)NC(=O)O[C@H]1CCOC1)[S+](=O)([O-])c1ccc(N)cc1` [Amprenavir], for which the results for the “AC50 for growth inhibition (log10 M)” value in assay [1] and in assay [2] were -5.63 and -6.03, respectively.

For the compound `S=C(NCc1ccc2c(c1)OCO2)N1CCN(c2ncnc3c2oc2ccccc23)CC1` [Amuvatinib], the “AC50 for growth inhibition (log10 M)” value is -5.57 in assay [1] and -4.92 in assay [2].

Consider `N#C[C@H](O[C@@H]1O[C@H](CO[C@@H]2O[C@H](CO)[C@@H](O)[C@H](O)[C@H]2O)[C@@H](O)[C@H](O)[C@H]1O)c1ccccc1` [Amygdalin], for which the “AC50 for growth inhibition (log10 M)” value in assay [1] was -4.68; in assay [2], -4.73.

With `COc1cc(F)c(C(C)C)cc1-c1ccc(C(F)(F)F)cc1CN1C(=O)O[C@H](c2cc(C(F)(F)F)cc(C(F)(F)F)c2)[C@@H]1C` [Anacetrapib], the results for the “AC50 for growth inhibition (log10 M)” value in assay [1] and in assay [2] were -5.48 and -5.13, respectively.

With `CCCCCC[C@H]1C(=O)O[C@H](C)[C@H](NC(=O)c2cccc(NC=O)c2O)C(=O)O[C@@H](C)[C@@H]1OC(=O)CC(C)C` [Antimycin A], the “AC50 for growth inhibition (log10 M)” value in assay [1] was -7.13; in assay [2], -7.08.

As to `OC1=CC=C(C=C1)\C2=C\C(=O)C3=C(O2)C=C(O)C=C3O` [Apigenin], the results for the “AC50 for growth inhibition (log10 M)” value in assay [1] and in assay [2] were -4.83 and -5.08, respectively.

On to `Cc1cccc(/C=N/Nc2cc(N3CCOCC3)nc(OCCc3ccccn3)n2)c1` [Apilimod], for which the “AC50 for growth inhibition (log10 M)” value is -4.78 in assay [1] and -4.88 in assay [2].

On to `OC[C@H]1O[C@@H](Oc2ccc(O)cc2)[C@H](O)[C@@H](O)[C@@H]1O` [Arbutin], for which the entries for the “AC50 for growth inhibition (log10 M)” value in assay [1] and in assay [2] were -4.78 and -4.93, respectively.

Turning to `C[C@H]1[C@@H](OC(=O)CCC(=O)O)O[C@@H]2O[C@@]3(C)CC[C@H]4[C@H](C)CC[C@@H]1[C@@]24OO3` [Artesunate (AS)], the “AC50 for growth inhibition (log10 M)” value in assay [1] is -5.18; in assay [2], -5.03.

On to `CCN1CCN(C(=O)Cc2ccc(Nc3ncc(F)c(Nc4ccc(C(=O)Nc5ccccc5Cl)cc4)n3)cc2)CC1` [Aurora A Inhibitor I], for which the “AC50 for growth inhibition (log10 M)” value is -4.73 in assay [1] and -4.78 in assay [2].

Turning to `COc1ccc(C(=O)CC(=O)c2ccc(C(C)(C)C)cc2)cc1` [Avobenzone], the entries for the “AC50 for growth inhibition (log10 M)” value in assay [1] and in assay [2] were -5.58 and -6.18, respectively.

Consider `CC[C@@H]1[C@@H](C)O[C@@](O)([C@@H](C)[C@H](O)[C@H](C)[C@H]2OC(=O)/C=C/C=C/[C@H](C)[C@@H]([C@@H](C)[C@@H](O)[C@H](C)[C@@]3(O)C[C@@H](O[C@H]4C[C@H](O)[C@H](O)[C@H](C)O4)[C@H](CC)[C@@H](C)O3)OC(=O)/C=C/C=C/[C@@H]2C)C[C@H]1O[C@H]1C[C@H](O)[C@H](O)[C@H](C)O1` [Azalomycin-B], for which the “AC50 for growth inhibition (log10 M)” value in assay [1] is -6.33; in assay [2] it was -6.38.

Consider `CN1CCCC(CC1)N2\N=C(CC3=CC=C(Cl)C=C3)/C4=C(C=CC=C4)C2=O` (stereo not given) [Azelastine hydrochloride], for which the “AC50 for growth inhibition (log10 M)” value in assay [1] was -6.03; in assay [2], -6.08.

As for `CCOc1ccccc1N/N=C1/C(=O)N(c2nc(-c3ccccc3)cs2)N=C1C` [BAM7], the “AC50 for growth inhibition (log10 M)” value in assay [1] and in assay [2] was -5.48 each time.

For `COc1ccc(-c2cc3nccn3c(Nc3ncccc3C(N)=O)n2)cc1OC` [BAY61-3606], the “AC50 for growth inhibition (log10 M)” value is -4.98 in assay [1] and -5.53 in assay [2].

Consider `COC1=C(OCCCN2CCOCC2)C=CC\3=C1/N=C(/NC(=O)C4=CN=C(N)N=C4)N5CC/N=C35` [BAY-80-6946], for which the “AC50 for growth inhibition (log10 M)” value is -7.44 in assay [1] and -6.84 in assay [2].

As for `Cn1c(=O)n(-c2ccc(C(C)(C)C#N)cc2)c2c3cc(-c4cnc5ccccc5c4)ccc3ncc21` [BEZ235], the “AC50 for growth inhibition (log10 M)” value was -5.33 in assay [1] and -6.88 in assay [2].

Turning to `CCN1CCN(c2ccc(Nc3cc(N(C)C(=O)Nc4c(Cl)c(OC)cc(OC)c4Cl)ncn3)cc2)CC1` [BGJ-398], the “AC50 for growth inhibition (log10 M)” value is -4.73 in assay [1] and -4.58 in assay [2].

(Values after the supplement of paper PMC5412046.)
